According to patent US12202832B2, “Heterocyclic compounds having a calcium-sensing receptor antagonistic activity” (TAKEDA PHARMACEUTICAL COMPANY LIMITED, priority 2017, dated 2025):

Key:
CYP3A4 = molecular target: T1, CYP3A4 (Homo sapiens, UniProt P08684); assay: CYP3A4 TDI in human liver microsomes (testosterone 6β-hydroxylation); assay type: in vitro ADME; conditions: 30 μM test compound, 60 min vs 0 min preincubation, solvent DMSO/acetonitrile (1:4, v/v)
T1 construct: Human liver microsomes purchased from XenoTech, LLC (Lenexa, KS) was used; tissue XenoTech, LLC (Lenexa, KS); host or cells: human liver microsomes
Protocol: Human liver microsomes purchased from XenoTech, LLC (Lenexa, KS) was used. Test compounds were dissolved in acetonitrile or DMSO/acetonitrile (1:4, v/v). To a human liver microsomes solution adjusted with phosphate buffer (pH 7.4), the test compound solution was added to obtain a human liver microsomes reaction solution having the test compound concentration of 30 μM. To the human liver microsome reaction solution, NADPH production system was added, and the mixture was preincubated at 37° C. for 0 minutes or 60 minutes. After the preincubation, probe substrate testosterone was added, and testosterone metabolite 6β-hydroxytestosterone was analyzed by LC/MS/MS to evaluate CYP3A4 enzymatic activity.
The enzyme activity (% of control) at each preincubation point was calculated from the following equation: % of control={(activity of test compound addition group)/(activity of test compound non-addition group)}×100.
The remaining activity (% remaining) after 60 minutes of preincubation was calculated from the following equation: Remaining activity (%)={activity after 60 minutes (% of control60 min)}/{activity after 0 minutes (% of control0 min)}×100.

CSQ-Tg mice = assay: Heart weight lowering effect in heart failure animal model; assay type: in vivo; conditions: mean ± standard deviation; for Heart weight / Right ventricle weight: ** p < 0.025 Williams' test
Protocol: In this Test Example, the heart weight lowering effect of the compound of Example 1 (referred to herein as “Example 1”) was evaluated using CSQ-Tg mice as animal model for heart failure.
The Example 1 was suspended in 0.5% methylcellulose aqueous solution (hereinafter, in Test Examples, sometimes referred to as “vehicle”) (10 mL/kg). The obtained suspension was orally administered to 5-week old female CSQ-Tg mice developing heart failure at a dose of 30 mg/kg bodyweight/day (n=7) or 90 mg/kg bodyweight/day (n=9) once daily (QD) for 21 days. For a negative control (vehicle administration group), 0.5% methylcellulose aqueous solution (n=7) was administered. Then, weights of the hearts were measured. The measurement of the weights was carried out by fractionating each of the hearts into four: left ventricle, right ventricle, left atrium, and right atrium. The sum of the weights of the four fractions was defined as the heart weight.

CYP3A = assay: CYP induction (CYP3A activity in cryopreserved hepatocytes, P450-Glo CYP3A4 assay); assay type: in vitro ADME; conditions: % of positive control; inducibility by 10 μmol/L rifampicin defined as 100%; hepatocytes treated 3 days
Protocol: Cryopreserved hepatocytes were thawed in a culture medium (In VitroGRO™ CP Medium, Celsis In Vitro Technologies, U.S.A.), and the resultant was added to BioCoat™ Matrigel®™ Matrix Thin-Layer 96 well (Becton, Dickinson and Company, U.S.A.) at a concentration of 40,000 cells/well. After culturing for 24 hours, the culture medium was removed, and replaced with an incubation medium (In VitroGRO™, HI Medium with Torpedo Antibiotic Mix, Celsis In Vitro Technologies, U.S.A.). Cells were cultured for an additional 3 days. The medium was removed on day 4, and the remained cells were treated in the induction medium containing a test compound for 3 days in the presence or absence of 10 μmol/L rifampicin. The induction medium was replaced every day. The test compound addition wells in the presence of 10 μmol/L rifampicin were used to evaluate the inhibitory effect of the test compound on the inducibility of the CYP3A activity by rifampicin. The CYP3A activity was evaluated by measuring luciferin generating amount after the addition of 2 μmol/L luciferin-IPA using IPA P450-Glo™ CYP3A4 assay systems (Promega Corporation, U.S.A.). All cultures were carried out under a humidified environment at 37° C., 5% CO2. The inducibility by rifampicin was defines as 100%, and the inducibility of the test compound (% of positive control) was calculated from the following equation: [(luciferin fluorescence intensity in the absence of rifampicin and the presence of test compound)−(luciferin fluorescence intensity in the absence of rifampicin and test compound)/(luciferin fluorescence intensity in the presence of rifampicin and the absence of test compound)−(Luciferin fluorescence intensity in the absence of rifampicin and test compound)]×100.

[1] = 30 mg/kg bodyweight/day oral QD 21 days
[2] = 90 mg/kg bodyweight/day oral QD 21 days

T1 sequence (P08684 whole entry): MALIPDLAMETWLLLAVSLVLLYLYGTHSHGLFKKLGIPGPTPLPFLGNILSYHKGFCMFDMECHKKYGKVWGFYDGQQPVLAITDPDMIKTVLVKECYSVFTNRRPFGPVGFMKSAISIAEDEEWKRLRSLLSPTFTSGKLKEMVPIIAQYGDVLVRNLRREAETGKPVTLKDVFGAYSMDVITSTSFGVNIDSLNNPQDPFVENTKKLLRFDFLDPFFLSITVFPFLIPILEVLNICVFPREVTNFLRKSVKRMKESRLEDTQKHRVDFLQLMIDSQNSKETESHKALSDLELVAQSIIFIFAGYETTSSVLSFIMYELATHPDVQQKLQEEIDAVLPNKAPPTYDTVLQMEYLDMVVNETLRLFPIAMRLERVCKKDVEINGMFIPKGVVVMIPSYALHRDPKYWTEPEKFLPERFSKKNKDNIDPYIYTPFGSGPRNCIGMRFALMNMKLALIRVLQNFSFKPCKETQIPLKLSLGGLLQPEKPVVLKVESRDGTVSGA

For CCc1ccc([C@@](CC)(NC(=O)c2c(C)nn3c2N[C@@H](c2ccccc2)CC3(C)C)C(=O)N[C@@H](C)C(N)=O)cc1 [Example 1, (5R)-N-((2R)-1-(((2S)-1-Amino-1-oxopropan-2-yl)amino)-2-(4-ethylphenyl)-1-oxobutan-2-yl)-2,7,7-trimethyl-5-phenyl-4,5,6,7-tetrahydropyrazolo[1,5-a]pyrimidine-3-carboxamide], the “Remaining Activity” value (CYP3A4) was 96.2%, the Left atrium weight (CSQ-Tg mice; [1]) was 8.1 ± 3.8 mg and the Left ventricle weight (CSQ-Tg mice; [1]) was 147.4 ± 12.0 mg. The Right atrium weight (CSQ-Tg mice; [1]) was 5.5 ± 2.6 mg, the Heart weight (CSQ-Tg mice; [1]) was 202.8 ± 14.1** mg and the Right ventricle weight (CSQ-Tg mice; [1]) was 41.8 ± 6.0** mg. For the same compound, the Left atrium weight (CSQ-Tg mice; [2]) was 9.1 ± 5.1 mg, the Left ventricle weight (CSQ-Tg mice; [2]) was 147.0 ± 8.6 mg and the Right atrium weight (CSQ-Tg mice; [2]) was 5.1 ± 2.2 mg. For the same compound, the Heart weight (CSQ-Tg mice; [2]) was 202.5 ± 19.1** mg, the Right ventricle weight (CSQ-Tg mice; [2]) was 41.3 ± 7.6** mg and the Inducibility (CYP3A) was 15.3%.
